biological target: T1, His-hMAGL (recombinant polyhistidine tagged human MAGL protein) (Homo sapiens, UniProt Q99685); experiment: Measurement of MAGL inhibitory activity (arachidonic acid production from 2-arachidonylglycerol, RapidFire-mass spectrometry); format: biochemical; conditions: MAGL inhibitory rate at 10 μM test compound; 60 min preincubation with His-hMAGL, 2-arachidonylglycerol substrate, 10 min reaction at room temperature
T1 construct: made in house; host or cells: E. coli BL21(DE3)
T1 sequence (Q99685 1-303): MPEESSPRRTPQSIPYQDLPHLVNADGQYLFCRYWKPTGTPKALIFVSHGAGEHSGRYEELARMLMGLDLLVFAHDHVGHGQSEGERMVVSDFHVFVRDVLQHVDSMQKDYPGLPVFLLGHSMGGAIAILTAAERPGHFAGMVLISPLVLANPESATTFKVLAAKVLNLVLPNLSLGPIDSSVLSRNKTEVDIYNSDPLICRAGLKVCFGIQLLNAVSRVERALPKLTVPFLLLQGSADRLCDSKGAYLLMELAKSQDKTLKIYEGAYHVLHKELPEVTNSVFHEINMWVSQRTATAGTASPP
Method: Furthermore, acetonitrile (50 μL) containing 3 μM arachidonic acid-d8 (Cayman Chemical Company) was added and the mixture was stirred.
The amount of arachidonic acid in the obtained enzyme reaction mixture was calculated by measuring by RapidFire-mass spectrometry and correcting by the amount of arachidonic acid-d8. High Throughput online solid phase extraction was performed using RapidFire 300™ system (Agilent Technologies, Inc.). Samples were loaded on SPE C4 cartridge (Agilent Technologies, Inc.) and desalted with 0.2 (v/v) % acetic acid (Wako Pure Chemical Industries, Ltd.) in ultrapure water/acetonitrile (70/30, v/v) at a flow rate of 1.5 mL/min, eluted at a flow rate of 0.5 mL/min with 0.2 (v/v) % acetic acid dissolved in acetonitrile/ultrapure water (90/10, v/v), and injected into the mass spectrometry part. The injection needle was washed with ultrapure water (500 millisecond) and acetonitrile (500 millisecond) to minimize carry-over. […] The RapidFire300 system was controlled by RapidFire UI software version 3.6 (Agilent Technologies, Inc.).
The mass spectrometry of the resultant product was performed using API4000™ triple quadrupole mass spectrometer (AB SCIEX) equipped with an electrospray ion sauce (TurboIon Spray™) in a negative selected reaction monitoring (SRM) mode. The conditions of SRM are shown below. The parameters of the instrument were optimized as follows: capillary temperature 600° C., ion spray voltage −4.5 kV, collision gas 8, curtain gas 15 psi, ion source gas 1 60 psi, ion source gas 2 60 psi. The mass spectrometer was controlled by Analyst™ software version 1.5.1 (AB SCIEX). The peak area integration was analyzed using RapidFire integrator software version 3.6 (Agilent Technologies, Inc.).
MAGL inhibitory rate (%) was calculated according to the following calculation formula. (1−(arachidonic acid production amount of test compound addition group−arachidonic acid production amount of enzyme−free group)÷(arachidonic acid production amount of test compound-free group−arachidonic acid production amount of enzyme-free group))×100

SMILES | inhibition at 10 µM
O=C1COc2cc(F)c(C(=O)N3CC(COc4ccc(C(F)(F)F)c(F)c4)C3)cc2N1 [Example 277, 7-fluoro-6-((3-((3-fluoro-4-(trifluoromethyl)phenoxy)methyl)azetidin-1-yl)carbonyl)-2H-1,4-benzoxazin-3(4H)-one] | 104%
N#Cc1cc(C(F)(F)F)ccc1OCC1CCN(C(=O)c2ccc3c(c2)NC(=O)CO3)CC1 [Example 67] | 101%
O=C1COc2cc(F)c(C(=O)N3CC(COc4ccc(Oc5ccccc5)cc4)C3)cc2N1 [Example 128, 7-fluoro-6-((3-((4-phenoxyphenoxy)methyl)azetidin-1-yl)carbonyl)-2H-1,4-benzoxazin-3(4H)-one] | 93%
O=C1COc2cc(F)c(C(=O)N3CC(COc4ccc(-c5cnn(C6CC6)c5)cc4F)C3)cc2N1 [Example 248, 6-((3-((4-(1-cyclopropyl-1H-pyrazol-4-yl)-2-fluorophenoxy)methyl)azetidin-1-yl)carbonyl)-7-fluoro-2H-1,4-benzoxazin-3(4H)-one] | 98%
O=C1COc2cc(F)c(C(=O)N3CC(COc4ccccc4C4CCCC4)C3)cc2N1 [Example 166, 6-((3-((2-cyclopentylphenoxy)methyl)azetidin-1-yl)carbonyl)-7-fluoro-2H-1,4-benzoxazin-3(4H)-one] | 98%
O=C1COc2ccc(C(=O)N3CCC(COc4cc(Cl)ncc4Cl)CC3)cc2N1 [Example 47, 6-((4-(((2,5-dichloropyridin-4-yl)oxy)methyl)piperidin-1-yl)carbonyl)-2H-1,4-benzoxazin-3(4H)-one] | 98%
O=C1COc2cc(F)c(C(=O)N3CCC(COc4ccc(F)cc4Br)CC3)cc2N1 [Example 99, 6-((4-((2-bromo-4-fluorophenoxy)methyl)piperidin-1-yl)carbonyl)-7-fluoro-2H-1,4-benzoxazin-3(4H)-one] | 99%
O=C1COc2cc(F)c(C(=O)N3CC(COc4ccc5c(c4)CCO5)C3)cc2N1 [Example 155, 6-((3-((2,3-dihydro-1-benzofuran-5-yloxy)methyl)azetidin-1-yl)carbonyl)-7-fluoro-2H-1,4-benzoxazin-3(4H)-one] | 101%
CC(Oc1ccc(F)cc1F)C1CN(C(=O)c2cc3c(cc2F)OCC(=O)N3)C1 (stereo not drawn) [Example 298, 6-((3-(1-(2,4-difluorophenoxy)ethyl)azetidin-1-yl)carbonyl)-7-fluoro-2H-1,4-benzoxazin-3(4H)-one] | 99%
Cc1cc(-c2cc(Cl)ccc2OCC2CN(C(=O)c3cc4c(cc3F)OCC(=O)N4)C2)n(C)n1 [Example 223, 6-((3-((4-chloro-2-(1,3-dimethyl-1H-pyrazol-5-yl)phenoxy)methyl)azetidin-1-yl)carbonyl)-7-fluoro-2H-1,4-benzoxazin-3(4H)-one] | 102%
O=C1COc2cc(F)c(C(=O)N3CC(COCc4ccc5scnc5c4)C3)cc2N1 [Example 272, 6-((3-((1,3-benzothiazol-5-ylmethoxy)methyl)azetidin-1-yl)carbonyl)-7-fluoro-2H-1,4-benzoxazin-3(4H)-one] | 100%
Cc1cc(-c2ccc(OCC3CN(C(=O)c4cc5c(cc4F)OCC(=O)N5)C3)c(F)c2)nn1C [Example 253, 6-((3-((4-(1,5-dimethyl-1H-pyrazol-3-yl)-2-fluorophenoxy)methyl)azetidin-1-yl)carbonyl)-7-fluoro-2H-1,4-benzoxazin-3(4H)-one] | 102%
O=C1COc2cc(F)c(C(=O)N3CCC(COc4cccc5scnc45)CC3)cc2N1 [Example 186, 6-((4-((1,3-benzothiazol-4-yloxy)methyl)piperidin-1-yl)carbonyl)-7-fluoro-2H-1,4-benzoxazin-3(4H)-one] | 97%
COc1ccc(COC2CN(C(=O)c3cc4c(cc3F)OCC(=O)N4)C2)cc1F [Example 348, 7-fluoro-6-((3-((3-fluoro-4-methoxybenzyl)oxy)azetidin-1-yl)carbonyl)-2H-1,4-benzoxazin-3(4H)-one] | 100%
O=C1COc2ncc(C(=O)N3CC(COCc4ccccc4)C3)cc2N1 [Example 14, 7-((3-((benzyloxy)methyl)azetidin-1-yl)carbonyl)-1H-pyrido[2.3-b][1,4]oxazin-2(3H)-one] | 80%
Cc1cc(C)c(OCC2CCN(C(=O)c3ccc4c(c3)NC(=O)CO4)CC2)cn1 [Example 39] | 100%
COc1cc(F)ccc1OCC1CN(C(=O)c2cc3c(cc2F)OCC(=O)N3)C1 [Example 121, 7-fluoro-6-((3-((4-fluoro-2-methoxyphenoxy)methyl)azetidin-1-yl)carbonyl)-2H-1,4-benzoxazin-3(4H)-one] | 99%

More lines, now with the values ahead:

inhibition at 10 µM | SMILES
103% | CC(C)c1ccc(OCC2CN(C(=O)c3cc4c(cc3F)OCC(=O)N4)C2)cc1 [Example 159, 7-fluoro-6-((3-((4-isopropylphenoxy)methyl)azetidin-1-yl)carbonyl)-2H-1,4-benzoxazin-3(4H)-one]
98% | O=C1COc2cc(F)c(C(=O)N3CC(COc4c(F)cccc4Cl)C3)cc2N1 [Example 136, 6-((3-((2-chloro-6-fluorophenoxy)methyl)azetidin-1-yl)carbonyl)-7-fluoro-2H-1,4-benzoxazin-3(4H)-one]
92% | O=C1COc2ccc(C(=O)N3CCC(COc4ccc5ccccc5c4)CC3)cc2N1 [Example 60, 6-((4-((2-naphthyloxy)methyl)piperidin-1-yl)carbonyl)-2H-1,4-benzoxazin-3(4H)-one]
96% | Cc1cc2c(cc1C(=O)N1CC(COc3ccc(F)cc3Cl)C1)NC(=O)CO2 [Example 88, 6-((3-((2-chloro-4-fluorophenoxy)methyl)azetidin-1-yl)carbonyl)-7-methyl-2H-1,4-benzoxazin-3 (4H)-one]
100% | O=C1COc2ccc(C(=O)N3CCC(COc4ccc(Cl)c(Cl)c4)CC3)cc2N1 [Example 43, 6-((4-((3,4-dichlorophenoxy)methyl)piperidin-1-yl)carbonyl)-2H-1,4-benzoxazin-3(4H)-one]
101% | O=C1COc2cc(F)c(C(=O)N3CC(OCc4ccc5c(c4)CCCC5)C3)cc2N1 [Example 346, 7-fluoro-6-((3-(5,6,7,8-tetrahydronaphthalen-2-ylmethoxy)azetidin-1-yl)carbonyl)-2H-1,4-benzoxazin-3(4H)-one]
97% | O=C1COc2cc(F)c(C(=O)N3CC(COc4ccc(-c5ccccn5)cc4F)C3)cc2N1 [Example 227, 7-fluoro-6-((3-((2-fluoro-4-(pyridin-2-yl)phenoxy)methyl)azetidin-1-yl)carbonyl)-2H-1,4-benzoxazin-3(4H)-one]
98% | O=C1COc2cc(F)c(C(=O)N3CC(COc4ccc5cnccc5c4)C3)cc2N1 [Example 173, 7-fluoro-6-((3-((isoquinolin-6-yloxy)methyl)azetidin-1-yl)carbonyl)-2H-1,4-benzoxazin-3(4H)-one]
100% | O=C1COc2cc(F)c(C(=O)N3CC(COc4ccccc4)C3)cc2N1 [Example 140, 7-fluoro-6-((3-(phenoxymethyl)azetidin-1-yl)carbonyl)-2H-1,4-benzoxazin-3(4H)-one]
102% | O=C1COc2ccc(C(=O)N3CCC(COc4cccc5ccccc45)CC3)cc2N1 [Example 59, 6-((4-((1-naphthyloxy)methyl)piperidin-1-yl)carbonyl)-2H-1,4-benzoxazin-3(4H)-one]
100% | O=C1COc2cc(F)c(C(=O)N3CCC(COc4cccc(-c5ccccc5)c4)CC3)cc2N1 [Example 150, 6-((4-((biphenyl-3-yloxy)methyl)piperidin-1-yl)carbonyl)-7-fluoro-2H-1,4-benzoxazin-3(4H)-one]
94% | O=C1COc2cc(F)c(C(=O)N3CC(COc4ccc(Cl)cc4-c4ccc(Cl)cn4)C3)cc2N1 [Example 196, 6-((3-((4-chloro-2-(5-chloropyridin-2-yl)phenoxy)methyl)azetidin-1-yl)carbonyl)-7-fluoro-2H-1,4-benzoxazin-3(4H)-one]

same assay, conditions: MAGL inhibitory rate at 10 μM test compound; 60 min preincubation with His-hMAGL, 2-arachidonylglycerol substrate, 10 min reaction at room temperature; 10 µM

% inhibition (10 μM) | SMILES
100% | CC(Oc1cc(F)ccc1F)C1CN(C(=O)c2cc3c(cc2F)OCC(=O)N3)C1 (stereo not drawn) [Example 320, 6-((3-(1-(2,5-difluorophenoxy)ethyl)azetidin-1-yl)carbonyl)-7-fluoro-2H-1,4-benzoxazin-3(4H)-one]
